Experimental data: patent US12187662B2, “FOXM1 inhibitor compositions and methods of using the same” (The Board of Trustees of the University of Illinois, priority 2018, dated 2025)
“Also recorded” adds a separate entry of the source. Where two headings read alike, the source gives them in different places. One block for each compound: values may come before it.

Legend:
MDA-MB-231 cells = test: Cell proliferation assay (WST-1), MDA-MB-231; assay type: cell-based, human; settings: inhibition of cell proliferation, read-out: IC50 MDA-MB-231
Experimental: (§1) All cells were tested for mycoplasma using Real-Time PCR Mycoplasma Detection Kit (Akron Biotech, Boca Raton, FL).
(§2) All assays were performed in triplicate.

breast cancer cell lines = test: Proliferation of breast cancer cell lines (panel, line not specified); assay type: cell-based, human; settings: for IC50: read-out: IC50 for inhibition of proliferation of breast cancer cell lines
Experimental: as §1, §2

FOXM1 and ERα = test: Cellular level of FOXM1 and ERα (Western blot, mRNA); assay type: cell-based, human; settings: Western blot over time
Experimental: In-cell Western and Western blot assays Cells were cultured in 96-well plates at 3000 cells/well, and treated with compounds for the times indicated. Cells were washed twice in PBS, fixed with 4% formaldehyde (Fisher Scientific) solution in PBS, permeabilized in 0.1% Triton X-100 in PBS, blocked with Odyssey Blocking Buffer (LI-COR), and incubated with FOXM1 antibody (GeneTex, 102170) rabbit HC-20 ERa antibody (Santa Cruz, Cat #SC-543) or mouse F10 ERa antibody (Santa Cruz, Cat #SC8002) at 4 C overnight. Both IRDye 800 CW goat anti-rabbit secondary antibody (LI-COR, Cat #926-32211) and Cell Tag 700 (LI-COR, Cat #926-41090) were diluted (1:600) for incubation with cells. Plates were washed and staining signals were quantified and normalized with Cell Tag signals (to control for any differences in cell number per well) using LI-COR Odyssey infrared imaging system. Fold changes in protein levels were calculated relative to the vehicle treated WT samples. Results are the average±SD from at least three independent experiments, each performed with 4 wells per treatment condition. […]
RNA isolation and real-time PCR Total RNA was isolated using TRIzol (Invitrogen) and reverse transcribed using […] reverse transcriptase (New England BioLabs). […] Relative mRNA levels of genes were normalized to the housekeeping gene 36B4, and fold change calculated relative to the vehicle treated samples. […]

MCF7 cells = test: Cell proliferation assay (WST-1), MCF7; assay type: cell-based, human; settings: for IC50: read-out: IC50 MCF7
Experimental: as §1, §2

DT22 cells = test: Cell proliferation assay (WST-1), DT22; assay type: cell-based, human
Experimental: as §1, §2

FOXM1 protein = target: T1, FOXM1 protein (Homo sapiens, UniProt Q08050); test: Competitive binding of inhibitors to FOXM1 by tr-FRET (Fl-NB-72 probe); settings: tr-FRET competition with Fl-NB-72; Ki calculated from IC50 (Cheng-Prusoff)
T1 construct: a terbium donor was attached to purified full length FOXM1 through a streptavidin-biotin linker
T1 sequence (Q08050 1-763): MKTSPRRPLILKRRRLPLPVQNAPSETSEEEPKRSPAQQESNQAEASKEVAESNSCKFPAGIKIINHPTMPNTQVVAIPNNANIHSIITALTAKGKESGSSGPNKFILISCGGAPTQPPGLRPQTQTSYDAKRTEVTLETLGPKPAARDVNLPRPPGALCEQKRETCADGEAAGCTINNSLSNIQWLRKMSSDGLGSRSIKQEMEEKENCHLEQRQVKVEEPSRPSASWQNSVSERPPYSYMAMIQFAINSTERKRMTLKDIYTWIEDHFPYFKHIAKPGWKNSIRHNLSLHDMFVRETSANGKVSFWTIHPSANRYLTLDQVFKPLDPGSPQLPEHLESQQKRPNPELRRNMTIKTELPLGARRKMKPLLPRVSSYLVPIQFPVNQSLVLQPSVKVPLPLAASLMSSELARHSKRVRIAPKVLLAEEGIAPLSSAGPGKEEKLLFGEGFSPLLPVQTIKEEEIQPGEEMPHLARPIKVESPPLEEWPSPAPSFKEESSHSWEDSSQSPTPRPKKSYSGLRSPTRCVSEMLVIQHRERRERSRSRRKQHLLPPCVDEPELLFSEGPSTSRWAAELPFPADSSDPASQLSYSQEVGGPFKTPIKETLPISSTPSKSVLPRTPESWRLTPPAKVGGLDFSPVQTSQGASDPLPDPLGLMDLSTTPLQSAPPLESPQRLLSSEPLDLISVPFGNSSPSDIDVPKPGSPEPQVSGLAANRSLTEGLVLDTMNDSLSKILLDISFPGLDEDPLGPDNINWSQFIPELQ
Experimental: Competitive binding assays of FOXM1 inhibitor binding to FOXM1 by tr-FRET were conducted. All tr-FRET experiments used FRET buffer (20 mM Tris, pH 7.5, 50 mM NaCl, 0.01% NP-40 detergent, 10% glycerol) with 0.3 mg/ml ovalbumin and 0.1 mM butylated hydroxy-anisole added fresh daily. Solutions of the protein, fluorescent probe and inhibitor dilutions were prepared at 3× the final concentrations, the final dilution taking place as they were mixed together on the microtiter plate.
Final concentrations were 10^-5M to 10^-9M, with the last point being buffer only, no inhibitor. Fluorescein-NB-72 (Fl-NB-72) was prepared at 1 mM in DMF and stored at −20° C. It was diluted into plain FRET buffer to give 100 nM in the assay.
Incubations were done in duplicate on black Molecular Devices 96-well microtiter plates. […] To this were added 5 μL of the inhibitor dilutions, mixed and incubated, in the dark, at room temperature, for 1 h. […] Diffusion-enhanced FRET was determined by a parallel incubation without biotin-FOXM1 and subtracted as a background signal. Graphs were prepared using Graph Pad/Prism 4.

[1] = Pharmacokinetic studies in mice after single s.c. or oral dose; settings: for half-life / AUC(0-t): female, CD-1, mouse, plasma
Experimental: For s.c. injection, each compound was dissolved in DMSO and then mixed with corn oil for a total injection volume of 100 μL (10% DSMO+90% corn oil) per mouse. For oral gavage, compounds were administered in a 200 μL formulation of 9/0.5/0.5/90 parts of PEG400/Tween80/Povidone/0.5% Carboxymethylcellulose. […] Compounds were quantified by LC-MS/MS at the University of Illinois Metabolomics Core Facility. The data were fitted to a non-compartment model.

[2] = after IV administration; cited from earlier work
[3] = test system: DT22 triple negative human breast tumor xenografts; test: DT22 triple negative breast tumor xenografts in NSG mice; assay type: in vivo, mouse; settings: for Tumor growth in vivo, low doses: 5 or 10 mg/kg s.c. every second or third day
Experimental: In vivo breast cancer xenograft studies For examination of the growth of triple-negative DT22 breast tumors, intact female NOD/SCID-gamma (NSG) mice were used. DT-22 cells (1×10^6 cells/mouse) were injected s.c. into the right axial mammary gland. Mice received s.c. injection or oral gavage daily or every second or third day, as indicated, with vehicle or FOXM1 inhibitor compound, and tumor growth was monitored over time.

[4] = test system: tamoxifen-resistant MCF7 breast cancer cells; test: Proliferation of tamoxifen-resistant MCF7 cells; assay type: cell-based, human; settings: 6 days
Experimental: Values are mean±SD of three separate assays. Cell proliferation assay WST-1 assay (Roche, Basel, Switzerland) was used to quantify cell viability as described (Gong et al., Mol. Cell Endocrinol., 2016, 437:190-200). Absorbance was measured at 450 nm using a VICTOR X5 PerkinElmer 2030 Multilabel Plate Reader. All assays were performed in triplicate.

[5] = cell line not specified or several lines
[6] = Homo sapiens, MCF7, inhibition of cell proliferation
[7] = Homo sapiens, DT-22, inhibition of cell proliferation
[8] = mice, oral, doses of FIGS. 6A-6B
[9] = mice, s.c., doses of FIGS. 6A-6B

Compound: CCN(CC)c1ccc(C(c2ccc(N(CC)CC)cc2)=c2ccc3c(c2)CCc2ccccc2[N+]=3CCCN(C)C)cc1 [Imipramine Blue]
half-life t1/2 [2]: 0.183 h

Compound: C=C(NC(=O)C(=C)NC(=O)c1csc(C2=N[C@@H]3c4csc(n4)[C@H]4NC(=O)c5csc(n5)[C@H]([C@](C)(O)[C@@H](C)O)NC(=O)[C@H]5CSC(=N5)/C(=C/C)NC(=O)[C@H]([C@@H](C)O)NC(=O)c5csc(n5)[C@]3(CC2)NC(=O)[C@H](C)NC(=O)C(=C)NC(=O)[C@H](C)NC(=O)[C@H]([C@@H](C)CC)N[C@@H]2C=Cc3c([C@H](C)O)cc(nc3[C@H]2O)C(=O)O[C@@H]4C)n1)C(N)=O [thiostrepton, reference compound]
IC50 (breast cancer cell lines; Homo sapiens): 2 µM
Cellular FOXM1 and ERα proteins (FOXM1 and ERα): downregulated
IC50 (MCF7 cells; [6]): 1.4 µM
IC50 (DT22 cells; [7]): 3.6 µM

Compound: CC/C(=C(\c1ccc(O)cc1)c1ccc(OCCN(C)C)cc1)c1ccccc1 [trans-hydroxytamoxifen, reference compound]
Effect on proliferation of tamoxifen-resistant MCF7 cells [4]: weakly stimulated

Continued, in another order:

IC50 (MDA-MB-231 cells): 4.5 µM
IC50 (breast cancer cell lines; [5]): 8 µM
IC50 (MCF7 cells; inhibition of cell proliferation): 3.1 µM
Ki (FOXM1 protein): 0.143 µM
Blood levels after s.c. administration ([1]; mice, 20 mg/kg s.c.): very low blood levels
Blood levels after oral administration ([1]; mice, 40 mg/kg oral, 40 mg/kg): undetectable
Blood levels after oral administration ([1]; mice, 40 mg/kg oral, listed as FDI 6, 40 mg/kg): not detectable
Compound: Nc1c(C(=O)Nc2ccc(F)cc2)sc2nc(-c3cccs3)cc(C(F)(F)F)c12 [FDI-6, reference compound]
Cellular FOXM1 and ERα proteins (FOXM1 and ERα): downregulated
IC50 (DT22 cells; inhibition of cell proliferation, read-out: IC50 DT-22): 4.8 µM

IC50 (MCF7 cells; [6]): 0.7 µM
Ki (FOXM1 protein): 0.13 µM
half-life ([1]; po, 20 mg/kg): 20.1 h
AUC(0-t) ([1]; po, 20 mg/kg, PK p.o. AUC0-48, mice, 20 mg/kg p.o. (footnote *)): 1.8 µM·h
AUC(0-t) ([1]; sc, 20 mg/kg, PK s.c. AUC0-48, mice, 20 mg/kg s.c. (footnote *)): 4.7 µM·h
Compound: CCN(CC)CCCCCCOc1ccc(C(c2ccc(OCCCCCCN(CC)CC)cc2)=C2[C@H]3C[C@@H]4C[C@@H](C[C@H]2C4)C3)cc1 [NB-51, 6,6′-(((((5r,7r)-adamantan-2-ylidene)methylene)bis(4,1-phenylene))bis(oxy))bis(N,N-diethylhexan-1-amine)]
Improvement in anti-proliferative activity versus monoamine NB-54 (MCF7 cells; MCF-7 cells): ~5 fold
IC50 (DT22 cells; [7]): 1.5 µM

IC50 (MCF7 cells; [6]): 5.5 µM
Ki (FOXM1 protein): 0.076 µM
half-life ([1]; sc): 25 to 40 h
AUC(0-t) ([1]; sc, 40 mg/kg, PK s.c. AUC0-48, mice, 40 mg/kg s.c.): 160 µM·h
PK p.o. AUC0-48 ([1]; mice, 40 mg/kg p.o.): too low to measure
Blood levels after oral administration [1, 8]: very low levels
AUC after s.c. administration relative to NB-55 ([1]; mice, s.c.): approximately 3 fold
Blood levels after s.c. injection [1, 9]: very high blood levels
Compound: C[N+]1(CCCCCCOc2ccc(C(c3ccc(Cl)cc3)=C3C4C[C@H]5C[C@@H](C4)C[C@H]3C5)cc2)CCCC1 [NB-63]
Tumor growth in vivo, low doses [3]: greatly suppress tumor growth
Growth of DT22-Luc xenograft tumors, low doses ([3]; NB-115 s.c. daily 2 or 6 mg/kg, NB-63 s.c. daily 20 mg/kg until day 20, then 10 mg/kg every other day): suppress the growth; also recorded: effective in suppressing the growth
Animal body weight ([3]; same low-dose regimens as tumor study (FIG. 14B)): do not affect; also recorded: little impact
IC50 (DT22 cells; [7]): 6 µM

IC50 for inhibition of proliferation of breast cancer cell lines (breast cancer cell lines; [5]): submicromolar
IC50 (MCF7 cells; [6]): 0.8 µM
Ki (FOXM1 protein): 0.19 µM
Compound: c1cc(C(=C2C3CC4CC(C3)CC2C4)c2ccc(OCCCCCCN3CCCC3)cc2)ccc1OCCCCCCN1CCCC1 [NB-65, 1,1′-((((((5r,7r)-adamantan-2-ylidene)methylene)bis(4,1-phenylene))bis(oxy))bis(hexane-6,1-diyl))dipyrrolidine]
IC50 (DT22 cells; [7]): 1 µM

IC50 (MDA-MB-231 cells; Homo sapiens, MDA-MB-231): 1.7 µM
IC50 (MCF7 cells; [6]): 0.8 µM
Ki (FOXM1 protein): 0.051 µM
half-life ([1]; po, 60 mg/kg): 18.5 h
AUC(0-t) ([1]; po, 60 mg/kg, PK p.o. AUC0-48, mice, 60 mg/kg p.o.): 0.18 µM·h
half-life ([1]; sc): 25 to 40 h
half-life ([1]; sc, 60 mg/kg): 109 h
AUC(0-t) ([1]; sc, 60 mg/kg, PK s.c. AUC0-48, mice, 60 mg/kg s.c.): 289 µM·h
Blood levels after oral administration [1, 8]: very low levels
Blood levels after s.c. injection [1, 9]: very high blood levels
Compound: C[N+]1(CCCCCCOc2ccc(C(=C3C4CC5CC(C4)CC3C5)c3ccc(OCCCCCC[N+]4(C)CCCC4)cc3)cc2)CCCC1 [NB-68, 1,1′-((((((5r,7r)-adamantan-2-ylidene)methylene)bis(4,1-phenylene))bis(oxy))bis(hexane-6,1-diyl))bis(1-methylpyrrolidin-1-ium) diiodide]
Tumor growth in vivo, low doses [3]: greatly suppress tumor growth
Growth of DT22 tumor xenografts ([3]; s.c., 20 mg/kg every other day for first 10 days then 10 mg/kg every other day): greatly suppress tumor growth
IC50 (DT22 cells; [7]): 0.7 µM
